A melting point compilation (Tetko et al.; mined from patent text by program, amines drawn as free bases though some values may be those of a salt)

| Compound | melting point |
| --- | --- |
| COC(=O)c1ccc2c(c1)Sc1ccccc1NC2=O | 255 to 257 °C |
| CN1CCC(c2c[nH]c3ccc(N)cc23)C(F)C1 (centres undefined) | 105 to 107 °C |
| Oc1ccc(C2=C(c3ccc(OCCCCCI)cc3)c3ccc(O)cc3CCC2)cc1 | 202 to 204 °C |
| CNCC1Cc2cc(F)cc(-c3cc(Cl)ccc3Cl)c2O1 (centres undefined) | 118 to 120 °C |
| Cc1nc2cc3c(cc2c(=O)[nH]1)C(N(C)c1ccc(C(=O)NC(CCc2nnnn2CC(=O)O)C(=O)O)c(F)c1)CC3 (mixture of isomers) | 232 to 235 °C |
| CCCOC(=O)C(C)Oc1ccc(Oc2cnc3cc(Cl)ccc3n2)cc1F (centres undefined) | 70 to 72 °C |
| CNC(=NC#N)NCCSCc1csc(NC(=N)N)n1 | 159 to 161 °C |
| CN(CCCNC(=O)c1cc(Cl)cc2nc3ccccc3nc12)CCCNC(=O)c1cc(Cl)cc2nc3ccccc3nc12 | 169 to 170 °C |
| Cc1ccc(-n2ncc(C(=O)O)c2C(N)=O)cc1C | 231 to 232 °C |
| COc1ccc(N2CCN(c3ccc(-n4cnn(CC(F)(F)F)c4=O)cc3)CC2)cc1 | 208 °C |
| CC(C)(O)c1ccc(-c2ccc(=O)n(Cc3ccc(Cl)cc3)c2)cc1 | 157 °C |
| O=C(CNS(=O)(=O)c1ccc2ccccc2c1)NCC(NC(=O)C1CCN(c2ccncc2)CC1)C(=O)N1CCCCC1 (centres undefined) | 200 to 202 °C |
| CC(NC(=O)CNC(=O)c1ccccc1)C(C)(C)C (centres undefined) | 124 to 126 °C |
| CSc1ccc(C(=O)Nc2ccc3ccc(Cl)nc3n2)s1 | 235 °C |
| CCN1C(=O)CC(C)(C)c2ccc(C#N)cc21 | 120 to 121 °C |
| C#CCn1c(=O)c(C(F)(F)F)cc2cc(F)c(-n3c(=O)cc(C(F)(F)F)n(C)c3=O)cc21 | 248 to 250 °C |
| O=C(NC(=O)N1CCC(Cc2ccccc2)CC1)c1ccc(OCc2ccccc2)cc1 | 155 to 156 °C |
| CS(=O)(=O)c1nc(Cl)c(-c2c(F)cc(F)cc2F)c(N2CCCO2)n1 | 210 to 219 °C |
| NC(=O)C1CCc2c([nH]c3ccc(Cl)cc23)C1 (centres undefined) | 203 to 204 °C |
| N#Cc1ccc(S(=O)(=O)Nc2cccc3c(C#N)c[nH]c23)cc1 | 250 to 252 °C |
| N#CSCc1ccc(C(=O)c2ccc(Cl)cc2)cc1 | 129 to 131 °C |
| O=C1C=C(NC(=O)C(=O)c2cn(Cc3ccc4ccccc4c3)c3ccccc23)CO1 | 283 to 285 °C |
| COc1nc2cc([N+](=O)[O-])c(C)c(C(=O)N(C)C)c2nc1OC | 138 to 141 °C |
| CCOC(=O)c1n[nH]c(C)c1Cl | 106 to 107 °C |
| O=c1[nH]c2ccc(CCCN3CCC(Cc4ccc(F)cc4)CC3)cc2o1 | 105 to 107 °C |

| Compound | melting point |
| --- | --- |
| COC(=O)c1cccc(Cl)c1NC(=O)CC1c2ccccc2Oc2ccccc21 | 178 to 179 °C |
| Cc1cnc(OCC(O)CNC(C)(C)C)c2cc(Cl)ccc12 (centres undefined) | 116 to 117 °C |
| N=C(NN=Cc1ccc(OC(F)C(F)(F)F)cc1)NN=Cc1ccc(OC(F)C(F)(F)F)cc1 (centres undefined) | 125 to 130 °C |
| O=c1c2c(c3cccnc3n1-c1ccccc1)OCCCC2 | 180 to 181 °C |
| CC1=NN=C(N2N=C(c3ccc([N+](=O)[O-])cc3)c3cc4c(cc3CC2C)OCO4)SC1 (centres undefined) | 203 to 204 °C |
| O=C(OCN1C(=O)c2ccccc2S1(=O)=O)c1ccncc1 | 145 to 146 °C |
| COc1ccc2c(c1)c(CC(=O)NO)c(C)n2C(=O)c1ccc(Cl)cc1 | 181 to 183 °C |
| O=C(N[C@H](Cc1cccc(C(F)(F)F)c1)[C@@H](O)c1ccc(F)cc1)c1cccc2ccccc12 (racemic) | 158 to 159 °C |
| Cn1c(=O)c(-c2ccc(Cl)cc2Cl)cc2c3cc(-c4ncco4)ccc3n(C)c21 | 232 to 233 °C |
| CCC(=O)N(C)c1cccc(-c2ccnc3c(C(=O)c4cccs4)cnn23)c1 | 186 to 187 °C |
| COc1cc2c(cc1OC)CN(CCCCc1ccc(NC(=O)c3cnc4cc(C)c(C)cc4n3)cc1)CC2 | 100 to 105 °C |
| CCOC(=O)c1csc2c1N(O)CCC2 | 252 to 253 °C |
| CC1OC(=O)C2C1C1CCC2(OC(=O)C(C)(C)C)O1 (centres undefined) | 114 to 115 °C |
| CCc1c(F)c(F)c(-n2ncc(C#N)c2NCC(C)C(=O)O)c(F)c1F (centres undefined) | 138 to 140 °C |
| Cn1nnc(-c2cccc(N)c2)n1 | 97 °C |
| CN1C2CCCC1CN(c1ccc3cc([N+](=O)[O-])ccc3n1)C2 | 166 °C |
| CCCCC(=O)OCC=C(C)CCC=C(C)CCC=C(C)CCC=C(C)CCC=C(C)CCC=C(C)CCC=C(C)CCC=C(C)CCC=C(C)C | 34 to 35 °C |
| Cc1ccc(-c2nnc(N3CCC(CO)CC3)nc2-c2ccc(C)cc2)cc1 | 152 to 154 °C |
| COC(=O)c1ccc(-c2nc(OC(C)=O)c(C)s2)cc1 | 124 to 125 °C |
| O=C1c2ccccc2C(=O)N1CCc1c[nH]c2ccc(CNS(=O)(=O)c3ccccc3)cc12 | 225 to 226 °C |
| Cc1oncc1C(=O)N1CCCC1 | 51 to 53 °C |
| O=C(c1ccc2ncccc2c1)c1ccc2[nH]c(=O)nc(-c3cccc(Cl)c3)c2c1 | > 260 °C |
| Clc1cnc(Sc2ccccc2)nc1 | 47 °C |
| COc1c(O)c(C)c(CN2CCN(C(=S)SC)CC2)c(O)c1OC | 135 to 136 °C |
| O=C(NCCO)c1c([N+](=O)[O-])ccc(N(CCBr)CCBr)c1[N+](=O)[O-] | 94 to 97 °C |

| Compound | melting point |
| --- | --- |
| Cc1nnc2n1-c1ccc(Cl)cc1C(c1ccccc1Cl)=NN2Cc1ccncc1 | 195 to 196 °C |
| CN1CCN(Cc2cc3c(cc2F)-c2[nH]nc(-c4ccsc4)c2C3)CC1 | 115 to 118 °C |
| Cc1c(Br)cc(-c2ccc(=O)[nH]n2)c(O)c1Br | > 280 °C |
| O=C(O)Cc1ccc(N(C(=O)C(COC2CCCCO2)NS(=O)(=O)c2ccc3ccccc3c2)c2ccc(CC(=O)O)cc2)cc1 (racemic) | 130 to 140 °C |
| O=C(O)CC1CCCc2cc(S(=O)(=O)c3ccccc3)ccc21 (centres undefined) | 144 °C |
| OCc1nccc(N2CCCCC2)c1Cl | 68 to 70 °C |
| O=c1ccn(CCO)c(Cc2cccc(F)c2)c1O | 235 to 242 °C |
| O=C(O)CCCCCCCCCCn1c(-c2ccccc2)nc(-c2ccccc2)c1-c1ccccc1 | 76 to 78 °C |
| CC1=C(N)C(=O)C2CC1C2(C)C (centres undefined) | 45 to 46 °C |
| N=C(N)N1CCC(CCC(=O)O)CC1 | > 275 °C |
| CN1C(=O)OC(C)(C)c2cc(-c3cccc(Br)c3)ccc21 | 142 to 143 °C |
| Cn1cc(CO)c(=O)c2ccc(Br)cc21 | > 300 °C |
| CC(C(C#N)C(=O)O)C(C)(C)C (centres undefined) | 68 to 78 °C |
| CC(C)c1ccccc1NC(=O)c1ccccc1SSc1ccccc1C(=O)Nc1ccccc1C(C)C | 235 to 237 °C |
| O=C(C(=O)N1CCCCC1)C(Cl)Cl | < 50 °C |
| COc1c(N2CCC(O)C(CO)C2)c(F)cc2c(=O)c(C(=O)O)cn(C3CC3)c12 (centres undefined) | 115 to 125 °C |
| O=C(O)c1ccc(CCCc2ccccc2Cc2ccccc2)cc1 | 135 to 136 °C |
| Cc1cccc(C)c1NC(=O)c1cc(CO)on1 | 95 °C |
| CCCCCC/C(=C\c1ccccc1)CNc1cccc(-c2ccnc3c(C(=O)c4cccs4)cnn23)c1 | 110 to 115 °C |
| CC12CCC(C1)C1(C)Oc3ccc(C(=O)c4ccc(C=O)cc4)cc3C21C (centres undefined) | 138 to 142 °C |
| CSC(=NC#N)NCCCOc1cccc(CN2CCCC2)c1 | 107 to 108 °C |
| CCN(CC)CCNC(=O)c1cc(Cl)c(N)cc1OCC(=O)C(C)C | 109 to 110 °C |
| Cc1noc(NC(=O)N2CCN(c3cc(-c4cccc(F)c4)ncn3)CC2)c1C | 185 to 186 °C |
| CCc1ccc(C)cc1-n1cncc1C(=O)OC | 56 to 57 °C |
| Cn1c(CC(C)(C)C(=O)O)c(C(=O)c2ccc(Cl)cc2)c2ccc(OCc3ccc4ccccc4n3)cc21 | 203 to 205 °C |

| Compound | melting point |
| --- | --- |
| CCCOc1ccccc1-c1nc(C=NNC(=O)OCC)c[nH]1 | 129 to 132 °C |
| O=C1Nc2ccc(-c3ccc(C=NO)c(F)c3)cc2C12CCCCC2 | 240 to 242 °C |
| CCOC(=O)c1c2ccc(CC(=O)N(OC)C3COC(C)(C)O3)ccc-2c(C(=O)OCC)c1N (centres undefined) | 135 to 137 °C |
| CC(C)(COc1ccc(CNC(=O)C2Cc3ccccc3N2S(=O)(=O)c2ccc(-c3ccccc3C(F)(F)F)cc2)cc1)C(=O)O (centres undefined) | 98 to 105 °C |
| Cc1cc(C(=O)O)cc2c1[nH]c1ccccc12 | > 240 °C |
| COc1ccc(Br)cc1OC(=O)c1ccccc1 | 73 to 75 °C |
| CCc1cnc2c(NC(=O)c3c(Cl)cccc3Cl)cccc2c1CCBr | 187 to 188 °C |
| CNC(=O)NC1=NC(=CCC(=O)Nc2ccc(Cl)cc2)CS1 | 203 to 205 °C |
| COc1ccc(C(=O)CC2CCCCC2=O)cc1 (centres undefined) | 98 to 99 °C |
| O=C(OC(Cc1ccccc1)C(=O)O)c1ccccc1 (centres undefined) | 113 °C |
| COc1ccc(-c2coc(C(=O)O)cc2=O)cc1 | 232 to 234 °C |
| CCOP(=O)(CCN1CCC(N(CCN)S(=O)(=O)c2ccc(Nc3nccc(Nc4ccc(F)cc4)n3)cc2)CC1)OCC | 90 °C |
| COc1ccc(-c2ccccc2)cc1N1CCN(C(=O)Nc2cc3ccccc3nc2OC)CC1 | 122 to 123 °C |
| NCCOc1ccc(/C(=C(\c2ccccc2)C(F)(F)F)c2ccccc2)cc1 | 71 to 76 °C |
| N#Cc1ccc(Nn2cnnc2)cc1-c1ccc(OCc2ccccc2)cc1 | 180 to 182 °C |
| O=C(Nc1cccnc1)c1cc2ccncc2[nH]1 | 270 to 290 °C |
| CCC1(CC)C(=O)Nc2ccccc21 | 156 to 159 °C |
| CCN1CCCC1CNC(=O)c1sc(CO)c(C)c1OC (centres undefined) | 118 to 119 °C |
| CCc1cccc(C)c1CNc1cc(C(N)=O)nc2c1nc(C)n2C | 237 to 239 °C |
| COc1ccc2c(ncn2C(=O)OC(C)(C)C)c1CBr | 127 to 129 °C |
| CC12CCC3c4ccc(O)cc4CCC3(C)C1CCC2O (centres undefined) | 168 to 170 °C |
| CC(C)Oc1cc(CCCOc2c(CC(=O)O)ccc3ccccc23)n(Cc2ccc(Cl)cc2Cl)n1 | 96 to 98 °C |
| COc1cccc(C(=C/C=C/C(=O)NC(C)(C)CCCc2cccnc2)c2cccc(OC)c2)c1 | 120 to 121 °C |
| N#CC(CNC(=O)Nc1cncnc1)C(=O)O (centres undefined) | 183 °C |
